Test results as given in patent US5858684A, “Method of screening calcium receptor-active molecules” (priority 1995, dated 1999).

Key:
[1] = molecular target: T1, calcium receptor expressed from bovine parathyroid cell mRNA in Xenopus oocytes (Bos taurus, UniProt P35384); assay: Cl- current in Xenopus oocytes injected with bovine parathyroid mRNA; format: cell-based; details: 30 μM
T1 sequence (P35384 20-1085): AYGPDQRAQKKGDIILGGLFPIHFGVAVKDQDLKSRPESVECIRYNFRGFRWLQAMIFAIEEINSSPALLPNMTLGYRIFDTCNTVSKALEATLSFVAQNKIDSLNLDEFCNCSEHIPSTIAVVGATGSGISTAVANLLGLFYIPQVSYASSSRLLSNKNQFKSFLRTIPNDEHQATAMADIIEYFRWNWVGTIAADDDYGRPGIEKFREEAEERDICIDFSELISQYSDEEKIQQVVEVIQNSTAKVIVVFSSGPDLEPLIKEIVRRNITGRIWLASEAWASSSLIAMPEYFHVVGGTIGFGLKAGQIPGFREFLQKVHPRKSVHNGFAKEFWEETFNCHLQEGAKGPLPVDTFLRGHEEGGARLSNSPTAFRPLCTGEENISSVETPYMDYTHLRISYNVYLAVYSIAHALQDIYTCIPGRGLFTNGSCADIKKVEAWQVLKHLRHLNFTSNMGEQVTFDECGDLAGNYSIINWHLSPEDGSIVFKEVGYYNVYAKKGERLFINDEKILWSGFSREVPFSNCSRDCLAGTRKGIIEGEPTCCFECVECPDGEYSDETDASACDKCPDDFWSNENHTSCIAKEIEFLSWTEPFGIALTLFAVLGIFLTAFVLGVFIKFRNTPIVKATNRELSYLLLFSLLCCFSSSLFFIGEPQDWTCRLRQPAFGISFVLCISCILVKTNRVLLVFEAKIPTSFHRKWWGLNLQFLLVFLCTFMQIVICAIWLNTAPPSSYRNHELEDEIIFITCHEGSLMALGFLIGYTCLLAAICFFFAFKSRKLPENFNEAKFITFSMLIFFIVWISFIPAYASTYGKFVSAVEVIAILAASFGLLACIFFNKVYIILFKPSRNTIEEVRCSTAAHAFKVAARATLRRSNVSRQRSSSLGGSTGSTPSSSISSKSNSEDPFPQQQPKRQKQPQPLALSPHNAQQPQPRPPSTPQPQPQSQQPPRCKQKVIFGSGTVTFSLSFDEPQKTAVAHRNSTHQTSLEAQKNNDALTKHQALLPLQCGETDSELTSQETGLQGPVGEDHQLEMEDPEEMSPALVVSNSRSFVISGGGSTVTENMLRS
Method: Glass capillary tubes (1 mm diameter) were pulled to a fine tip and manually broken to achieve a tip diameter of about 15 μmeters. A droplet of mRNA (1 ng/nl in diethylpyrocarbonate (DEPC)-treated water) was placed onto […]® and drawn into the capillary tube by suction. The capillary tube was then connected to a picospritzer (WPI Instruments) and the volume of the air-pulsed droplets adjusted to deliver 50 ng of mRNA (typically 50 nl). A 35-mm culture dish with a patch of nylon stocking fixed to the bottom was used to secure the oocytes during injection of mRNA into the vegetal pole. The injected oocytes were placed into a 35-mm culture dish containing MBS, 100 μg/ml penicillin and 100 μg/ml streptomycin and incubated at 18° C. for 3 days.
Following incubation, an oocyte was placed into a 100-μl plastic chamber and superfused with MBS at a flow rate of 0.5 ml/min using a peristaltic pump. Test molecules or inorganic polycations were added by rapidly moving the tubing into different buffers. Recording and current-passing electrodes were constructed from thin-wall capillary tubing pulled to a resistance of 1-3 Mohms and filled with 3M KCl. […] Currents were recorded directly onto a strip chart recorder.

[2] = serum ionized Ca2+ in 5/6 nephrectomized rats (secondary hyperparathyroidism model); format: in vivo, rat; details: 10 mg/kg i.p.; within 2 hours
Excerpt: An accepted and widely used animal model of secondary hyperparathyroidism arising from chronic renal failure is the 5/6 nephrectomized rat. Animals receiving such surgery become initially hypocalcemic and, to maintain serum Ca^2+ levels, there is a compensatory hyperplasia of the parathyro:Ld glands and elevated levels of circulating PTH. Male Spracue-Dawley rats (250 g) received a 5/6 nephrectomy and were allowed to recover for 2 weeks. At this time they were normocalcemic (due to elevated levels of serum PTH).

[3] = test system: human parathyroid calcium receptor (HuPCaR 5.2) in HEK293 cells; assay: intracellular calcium in HEK293 cells transfected with HuPCaR 5.2; format: cell-based; details: Ca2+ 10 mM; Mg2+ 20 mM
Method: Cells obtained from the pool of hygromycin selected HEK293 cells transfected with Cep4B containing the HuPCaR 5.2 insert were plated on collagen coated Aklar squares which had been placed into individual wells of 12-well tissue culture plates. Two to six days later, medium was removed and the cells washed with balanced salt solution and 1 ml of buffer containing 1 μM fura2-AM, 1 mM CaCl2 and 0.1% BSA and 1 mM CaCl2. Measurements of fluorescence in response to calcium receptor agonists were performed at 37° C. in a spectrofluorimeter using excitation and emission wavelengths of 340 and 510 nm, respectively. For signal calibration, Fmax was determined after addition of ionomycin (40 μM) and the apparent Fmin was determined by addition of 0.3M EGTA, 2.5M Tris-HCl; pH 10.

[4] = serum parathyroid hormone in a human; format: in vivo; details: single oral doses 20-400 mg
Excerpt: (§1) A range of single oral doses was used to assess safety, tolerance, and changes in primary hyperparathyroidism markers (e.g., plasma concentrations of parathyroid hormone and ionized serum calcium) and of serum calcitonin.

[5] = serum calcitonin in a human; format: in vivo; details: single oral doses 20-400 mg
Excerpt: as §1

[6] = plasma calcitonin in rats; format: in vivo, rat; details: p.o.
[7] = test system: increases in [Ca2+]i elicited by extracellular Ca2+ in bovine parathyroid cells; assay: block of extracellular Ca2+-induced [Ca2+]i increase / Ca2+ influx in bovine parathyroid cells; format: cell-based; details: 30 μM
Method: The cells were then pelleted, resuspended in the same buffer, but lacking the ester, and incubated a further 15 minutes at 37° C. The cells were subsequently washed twice with PCB containing 0.5 mM CaCl2 and 0.5% BSA and maintained at room temperature (about 20° C.). Immediately before use, the cells were diluted five-fold with prewarmed 0.5 mM CaCl2 -PCB to obtain a final BSA concentration of 0.1%. The concentration of cells in the cuvette used for fluorescence recording was 1-2×10^6 /ml.
The fluorescence of indicator-loaded cells was measured at 37° C. in a spectrofluorimeter (Biomedical Instrumentation Group, University of Pennsylvania, Philadelphia, Pa.) equipped with a thermostated cuvette holder and magnetic stirrer using excitation and emission wavelengths of 340 and 510 nm, respectively. […] Leakage of dye is dependent on temperature and most occurs within the first 2 minutes after warming the cells in the cuvette. Dye leakage increases only very slowly thereafter. To correct the calibration for dye leakage, cells were placed in the cuvette and stirred at 37° C. for 2-3 minutes. The cell suspension was then removed, the cells pelleted, and the supernatant returned to a clean cuvette. […] This estimate was subtracted from the apparent Fmin.

[8] = test system: PTH secretion from human parathyroid cells; assay: PTH secretion from human parathyroid cells; format: cell-based; details: human (adenoma) parathyroid cells
Method: PTH secretion was measured by first suspending cells in PCB containing 0.5 mM CaCl2 and 0.1% BSA.
For human cells, a commercially available radioimmunoassay kit (INS-PTH; Nichols Institute, Los Angeles, Calif.) which recognizes intact and N-terminal human PTH was used because GW-1 antibody recognizes human PTH poorly.

SMILES: COc1cccc([C@@H](C)NCCCc2ccccc2)c1 (single isomer, unassigned) [NPS R-467]
- Cl- current [1]: rapid increase in Cl^-
- serum ionized Ca2+ as % of controls [2]: 83 % of controls
- increase in intracellular calcium [3]: Robust increases

SMILES: COc1cccc([C@@H](C)NCCCc2ccccc2Cl)c1 [NPS R-568, (R)-(+)-N-[3-(2-chlorophenyl)propyl]-amethyl-α-3-methoxybenzylamine]
- plasma PTH in human [4]: transient dose-dependent decrease in plasma PTH concentration
- serum calcitonin in human [5]: no apparent change in serum calcitonin
- plasma calcitonin [6]: an increase in calcitonin

SMILES: NC[C@@H]1O[C@H](O[C@H]2[C@@H](O)[C@H](O[C@@H]3[C@@H](O)[C@H](N)C[C@H](N)[C@H]3O[C@H]3O[C@H](CN)[C@@H](O)[C@H](O)[C@H]3N)O[C@@H]2CO)[C@H](N)[C@@H](O)[C@@H]1O [Neomycin]
- effect on [Ca2+]i increases elicited by extracellular Ca2+ [7]: blocks transient, but does not block steady-state increases
- inhibition of PTH secretion ([8]; listed as Neomycin B): inhibited PTH secretion
- inhibition of PTH secretion ([8]; listed as neomycin B): inhibit PTH secretion
